According to ChEMBL document CHEMBL1125315, “Synthesis and evaluation of 2-pyridinone derivatives as HIV-1-specific reverse transcriptase inhibitors. 2. Analogues of 3-aminopyridin-2(1H)-one” (J Med Chem, 1992):

Tested on: MT4
Experiment: Compound was evaluated for antiviral activity against MT-4 cells. Cell culture inhibitor concentration (CIC95) is defined as those which inhibited by >95% the spread of HIV-1 IIIb infection in susceptible cell culture; value ranges from 0.012-0.025 uM
Type: functional
Conditions: Homo sapiens, read-out: CIC95

Question: How did the IC95 turn out when `Cc1cn([C@H]2C[C@H](N=[N+]=[N-])[C@@H](CO)O2)c(=O)[nH]c1=O` [ZIDOVUDINE] was run?
Answer: The IC95 was 12 nM.

Tested on: H9
Experiment: Compound was evaluated for antiviral activity in H9 cells. Cell culture inhibitor concentration (CIC95) is defined as uM
Type: functional
Conditions: Homo sapiens, read-out: CIC95

Question: For `CCc1cc(NCc2nc3c(C)ccc(C)c3o2)c(O)nc1C`, which IC95 is on record?
Answer: Its IC95 is 100 nM.

Tested on: H9
Experiment: Compound was evaluated for antiviral activity against H9 cells. Cell culture inhibitor concentration (CIC95) is defined as those which inhibited by >95% the spread of HIV-1 IIIb infection in susceptible cell culture
Type: functional
Conditions: Homo sapiens, read-out: CIC95

Question: `Cc1cn([C@H]2C[C@H](N=[N+]=[N-])[C@@H](CO)O2)c(=O)[nH]c1=O` [ZIDOVUDINE] was tested. Which IC95 did it give?
Answer: Its IC95 is 20000 nM.

Tested on: MT4
Experiment: Compound was evaluated for antiviral activity in MT-4 cells. Cell culture inhibitor concentration (CIC95) is defined as concentration which inhibited >95% the spread of HIV-1 IIIb infection in susceptible cell culture; value ranges from 0.025-0.050 uM
Type: functional
Conditions: Homo sapiens, read-out: CIC95

Question: `CCc1cc(NCc2nc3c(Cl)ccc(Cl)c3o2)c(O)nc1C` [L-697661] was tested. Which IC95 did it give?
Answer: The IC95 was 25 nM.

Question: `CCc1cc(NCc2nc3c(C)ccc(C)c3o2)c(O)nc1C` was tested. Which IC95 did it give?
Answer: Its IC95 is 25 nM.

Tested on: MT4
Experiment: Compound was evaluated for antiviral activity in MT-4 cells. Cell culture inhibitor concentration (CIC95) is defined as concentration which inhibited >95% the spread of HIV-1 IIIb infection in susceptible cell culture
Type: functional
Conditions: Homo sapiens, read-out: CIC95

Question: Which IC95 does the source give for `CCc1cc(NCc2nc3ccccc3o2)c(O)nc1C` here?
Answer: The IC95 was 200 nM.

Question: `CCc1cc(NCc2cc3c(Cl)ccc(Cl)c3o2)c(O)nc1C` was tested. Which IC95 did it give?
Answer: The IC95 was 50 nM.

Question: Which IC95 does the source give for `CSc1cc(NCc2nc3c(Cl)ccc(Cl)c3o2)c(O)nc1C` here?
Answer: The IC95 was 100 nM.

Target: Human immunodeficiency virus type 1 reverse transcriptase (Human immunodeficiency virus 1, UniProt Q72547)
Experiment: In vitro HIV-1 RT inhibitory activity using rC.dG as template-primer
Conditions: not given

Question: Which IC50 does the source give for `CCc1cc(NCc2cc3ccncc3o2)c(O)nc1C` here?
Answer: Its IC50 is 105000 nM.

Question: Which IC50 does the source give for `CCc1cc(NCc2cc3ccccc3s2)c(O)nc1C` here?
Answer: The IC50 was 500 nM.

Question: With `CCc1cc(NCc2nc3c(F)ccc(Cl)c3o2)c(=O)[nH]c1C` as the compound, how does the IC50 read?
Answer: Its IC50 is 105 nM.

Question: Which IC50 does the source give for `CCSc1cc(NCc2nc3ccccc3o2)c(=O)[nH]c1C` here?
Answer: The IC50 was 430 nM.

Question: With `CCc1cc(NCc2ccc3ccccc3c2)c(=O)n(C)c1C` as the compound, how does the IC50 read?
Answer: Its IC50 is 11000 nM.

Question: How did the IC50 turn out when `CCc1cc(NCc2nc3c(Cl)cccc3o2)c(O)nc1C` was run?
Answer: The IC50 was 150 nM.

Question: Which IC50 does the source give for `CCc1cc(NCc2ccoc2)c(O)nc1C` here?
Answer: The IC50 was 145000 nM.

Question: Which IC50 does the source give for `CCc1cc(N(C)Cc2nc3c(Cl)ccc(Cl)c3o2)c(=O)[nH]c1C` here?
Answer: The IC50 was 58 nM.

Question: How did the IC50 turn out when `Cc1nc(O)c(NCc2nc3ccccc3o2)cc1[S+](C)[O-]` (configuration not stated) was run?
Answer: Its IC50 is 31500 nM.

Question: With `CCc1cc(NCc2nc3c(O)cccc3o2)c(=O)[nH]c1C` as the compound, how does the IC50 read?
Answer: The IC50 was 440 nM.

Question: How did the IC50 turn out when `CCc1cc(NCc2nc3ccccc3[nH]2)c(O)nc1C` was run?
Answer: The IC50 was 7580 nM.

Question: Which IC50 does the source give for `CCc1cc(NCc2nc3cccc(CC)c3o2)c(O)nc1C` here?
Answer: Its IC50 is 260 nM.

Question: `CCc1cc(NCc2ncc(-c3ccccc3)o2)c(=O)[nH]c1C` was tested. Which IC50 did it give?
Answer: Its IC50 is 2350 nM.

Question: With `CCc1cc(NCc2coc3ccccc3c2=O)c(=O)[nH]c1C` as the compound, how does the IC50 read?
Answer: The IC50 was 1100 nM.

Question: Which IC50 does the source give for `CCc1cc(NCc2nc3c(o2)CCCC3)c(=O)[nH]c1C` here?
Answer: The IC50 was 280 nM.

Question: How did the IC50 turn out when `CCc1cc(NCc2nc3ccccc3c(=O)[nH]2)c(=O)[nH]c1C` was run?
Answer: Its IC50 is 2500 nM.

Question: Which IC50 does the source give for `COc1cc(NCc2nc3c(Cl)ccc(Cl)c3o2)c(O)nc1C` here?
Answer: Its IC50 is 115 nM.

Question: With `CCc1cc(NCc2nc3cc(F)ccc3o2)c(=O)[nH]c1C` as the compound, how does the IC50 read?
Answer: The IC50 was 470 nM.

Question: `CCc1cc(NCc2nc3cc(C)ccc3o2)c(O)nc1C` was tested. Which IC50 did it give?
Answer: Its IC50 is 1250 nM.

Question: Which IC50 does the source give for `CCc1cc(NCc2oc3ccccc3c2C)c(=O)[nH]c1C` here?
Answer: Its IC50 is 1950 nM.

Question: Which IC50 does the source give for `C=Cc1cc(NCc2nc3c(Cl)ccc(Cl)c3o2)c(=O)[nH]c1C` here?
Answer: Its IC50 is 23 nM.

Question: How did the IC50 turn out when `CCc1c(C)[nH]c(=O)c(NCc2nc3ccccc3o2)c1C` was run?
Answer: Its IC50 is 600 nM.

Question: With `CCc1cc(NCc2ccc3ccccc3c2)c(=O)[nH]c1C` as the compound, how does the IC50 read?
Answer: Its IC50 is 460 nM.

Question: `Cc1[nH]c(=O)c(NCc2nc3c(Cl)ccc(Cl)c3o2)cc1C(C)O` (configuration not stated) was tested. Which IC50 did it give?
Answer: Its IC50 is 1050 nM.

Question: `CCc1cc(NCc2nc3cccc(Cl)c3o2)c(=O)[nH]c1C` was tested. Which IC50 did it give?
Answer: Its IC50 is 65 nM.

Question: How did the IC50 turn out when `CCc1cc(N(C)Cc2nc3c(C)ccc(C)c3o2)c(=O)[nH]c1C` was run?
Answer: The IC50 was 103 nM.

Question: For `CCc1cc(NCc2cc3ccccc3o2)c(O)nc1C`, which IC50 is on record?
Answer: The IC50 was 330 nM.

Question: How did the IC50 turn out when `CCc1cc(NCc2nc3c(F)cccc3o2)c(=O)[nH]c1C` was run?
Answer: Its IC50 is 110 nM.

Question: With `CCc1cc(NC(C)c2ccc3ccccc3c2)c(O)nc1C` (configuration not stated) as the compound, how does the IC50 read?
Answer: The IC50 was 1130 nM.

Question: `CCc1cc(NCc2ccc3ccccc3n2)c(=O)[nH]c1C` was tested. Which IC50 did it give?
Answer: The IC50 was 530 nM.

Question: For `CCc1cc(NCc2cnc3ccccc3c2)c(=O)[nH]c1C`, which IC50 is on record?
Answer: Its IC50 is 335 nM.

Question: For `CCc1cc(NCc2nc3cccc(F)c3o2)c(=O)[nH]c1C`, which IC50 is on record?
Answer: The IC50 was 92 nM.

Question: `CCc1cc(N(CC)Cc2nc3c(Cl)ccc(Cl)c3o2)c(O)nc1C` was tested. Which IC50 did it give?
Answer: The IC50 was 654 nM.

Question: For `CCc1cc(NCc2nc3c(C)cccc3o2)c(O)nc1C`, which IC50 is on record?
Answer: The IC50 was 120 nM.

Question: For `CCc1cc(NC(C)c2cc3ccccc3o2)c(=O)[nH]c1C` (configuration not stated), which IC50 is on record?
Answer: The IC50 was 970 nM.

Question: For `CCc1cc(NCc2ccccc2)c(=O)[nH]c1C`, which IC50 is on record?
Answer: Its IC50 is 5330 nM.

Question: How did the IC50 turn out when `CSc1cc(NCc2nc3ccccc3o2)c(O)nc1C` was run?
Answer: The IC50 was 190 nM.

Question: How did the IC50 turn out when `O=c1[nH]c2ccccc2cc1NCc1ccc2ccccc2c1` was run?
Answer: The IC50 was over 300000 nM.

Question: How did the IC50 turn out when `CCc1cc(NCc2cccc3ccccc23)c(=O)[nH]c1C` was run?
Answer: The IC50 was 2100 nM.

Question: How did the IC50 turn out when `Cc1cc(C)c(NCc2nc3c(Cl)ccc(Cl)c3o2)c(=O)[nH]1` was run?
Answer: The IC50 was 2850 nM.

Question: How did the IC50 turn out when `CCc1cc(NCc2cc3c(Cl)ccc(Cl)c3o2)c(O)nc1C` was run?
Answer: The IC50 was 57 nM.

Question: With `CCc1cc(NCc2nc3c(F)ccc(F)c3o2)c(=O)[nH]c1C` as the compound, how does the IC50 read?
Answer: The IC50 was 70 nM.

Question: `CCc1cc(NCc2nc3cc4ccccc4cc3o2)c(=O)[nH]c1C` was tested. Which IC50 did it give?
Answer: The IC50 was 10000 nM.

Question: For `CCc1cc(N(C)Cc2cc3c(Cl)ccc(Cl)c3o2)c(=O)[nH]c1C`, which IC50 is on record?
Answer: Its IC50 is 1050 nM.

Question: Which IC50 does the source give for `Cc1[nH]c(=O)c(NCc2nc3ccccc3o2)cc1S(C)(=O)=O` here?
Answer: The IC50 was 1150 nM.

Question: Which IC50 does the source give for `CCc1cc(NCc2cccnc2)c(=O)[nH]c1C` here?
Answer: The IC50 was 300000 nM.

Question: How did the IC50 turn out when `CCc1cc(NCc2nc3c(N)cccc3o2)c(O)nc1C` was run?
Answer: The IC50 was 67000 nM.

Question: With `CCc1cc(NCc2nc3ncccc3o2)c(O)nc1C` as the compound, how does the IC50 read?
Answer: Its IC50 is 1900 nM.

Question: Which IC50 does the source give for `CCc1cc(NCc2ccc3ccccc3c2)c(=S)[nH]c1C` here?
Answer: The IC50 was 300 nM.

Question: Which IC50 does the source give for `CCc1cc(NCc2nc3c(OC)cccc3o2)c(=O)[nH]c1C` here?
Answer: The IC50 was 180 nM.

Question: How did the IC50 turn out when `CCc1cc(NCc2ccccn2)c(O)nc1C` was run?
Answer: Its IC50 is 15000 nM.

Question: `CCc1cc(NCc2ccco2)c(=O)[nH]c1C` was tested. Which IC50 did it give?
Answer: The IC50 was 29000 nM.

Question: How did the IC50 turn out when `CCc1cc(NCc2nc3ccc(F)cc3o2)c(=O)[nH]c1C` was run?
Answer: Its IC50 is 1250 nM.

Question: How did the IC50 turn out when `CCc1cc(NCc2nc3c(Cl)ccc(Cl)c3o2)c(S)nc1C` was run?
Answer: The IC50 was 42 nM.

Question: How did the IC50 turn out when `CSc1cc(NCc2nc3c(Cl)ccc(Cl)c3o2)c(O)nc1C` was run?
Answer: Its IC50 is 43 nM.

Question: `CCOC(=O)c1cc(NCc2nc3ccccc3o2)c(=O)[nH]c1C` was tested. Which IC50 did it give?
Answer: Its IC50 is 1750 nM.

Question: With `CCc1cc(NCc2cc3ccccc3[nH]2)c(=O)[nH]c1C` as the compound, how does the IC50 read?
Answer: Its IC50 is 4400 nM.

Question: `CC(=O)c1cc(NCc2nc3c(Cl)ccc(Cl)c3o2)c(O)nc1C` was tested. Which IC50 did it give?
Answer: The IC50 was 300 nM.

Question: With `CCc1cc(NCc2cc3cccc(Cl)c3o2)c(O)nc1C` as the compound, how does the IC50 read?
Answer: The IC50 was 335 nM.

Question: How did the IC50 turn out when `CCc1cc(NCc2nc3c(ccc4ccccc43)o2)c(O)nc1C` was run?
Answer: Its IC50 is 2700 nM.

Question: Which IC50 does the source give for `CCc1cc(NCc2nc3c([N+](=O)[O-])cccc3o2)c(O)nc1C` here?
Answer: Its IC50 is 24500 nM.

Question: For `CCc1cc(NCc2cc3cnccc3o2)c(=O)[nH]c1C`, which IC50 is on record?
Answer: The IC50 was 32300 nM.

Question: For `CCc1cc(NCc2c[nH]c3ccccc23)c(O)nc1C`, which IC50 is on record?
Answer: Its IC50 is 22500 nM.

Question: How did the IC50 turn out when `CCc1cc(NCc2nc3ccc(C)cc3o2)c(=O)[nH]c1C` was run?
Answer: The IC50 was 1650 nM.
